pIC50: −log10 of the molar value.
Tests used:
[1] = tested on: Mice treated with HFD; settings: HFD 8 weeks then daily intraperitoneal 20 mg/kg TNP and HFD for 18 days; cited from earlier work
[2] = target: IP6K1 (Homo sapiens (Human), UniProt Q92551); assay: IP6K1 IC50 of compounds of Formula (IA) and Formula (IB); assay type: biochemical
Sequence of IP6K1 (Q92551 whole entry, species assumed): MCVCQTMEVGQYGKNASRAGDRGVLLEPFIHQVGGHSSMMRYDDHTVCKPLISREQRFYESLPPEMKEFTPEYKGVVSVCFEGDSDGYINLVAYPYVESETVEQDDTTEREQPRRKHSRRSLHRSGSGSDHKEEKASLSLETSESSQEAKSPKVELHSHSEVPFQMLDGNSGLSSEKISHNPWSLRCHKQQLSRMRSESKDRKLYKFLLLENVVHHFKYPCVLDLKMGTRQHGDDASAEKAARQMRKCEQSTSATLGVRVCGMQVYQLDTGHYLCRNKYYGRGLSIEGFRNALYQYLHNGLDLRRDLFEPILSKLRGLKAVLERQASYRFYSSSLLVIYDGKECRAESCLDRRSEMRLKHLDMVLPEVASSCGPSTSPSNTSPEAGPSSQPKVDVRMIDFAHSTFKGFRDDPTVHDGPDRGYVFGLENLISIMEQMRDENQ

IP6K1 IC50 [2]	SMILES	also measured
+ + +	O=C(O)c1ccc2c(c1)C1(CCN(C(=O)c3ccc(Cl)cc3Cl)CC1)C(=O)N2 [Cmpd 17a, 1′-(2,4-dichlorobenzoyl)-2-oxospiro[indoline-3,4′-piperidine]-5-carboxylic acid]	–
+ +	O=C(O)c1ccc2[nH]c(=O)n([C@@H]3CCN(Cc4ccc(Cl)cc4Cl)C3)c2c1 [Cmpd 15b, (R)-3-(1-(2,4-dichlorobenzyl)pyrrolidin-3-yl)-2-oxo-2,3-dihydro-1H-benzo[d]imidazole-5-carboxylic acid]	–
+ +	O=C(O)c1ccc2[nH]c(=O)n(C3CN(Cc4ccc(Cl)cc4Cl)C3)c2c1 [Cmpd 11b, 3-(1-(2,4-dichlorobenzyl)azetidin-3-yl)-2-oxo-2,3-dihydro-1H-benzo[d]imidazole-5-carboxylic acid]	–
+ +	O=C(O)c1ccc2c(c1)C1(CCN(Cc3ccccc3Cl)CC1)C(=O)N2 [Cmpd 15a, 1′-(2-chlorobenzyl)-2-oxospiro[indoline-3,4′-piperidine]-5-carboxylic acid]	–
+ +	O=C(O)c1ccc2[nH]c(=O)n([C@H]3CCN(Cc4ccc(Cl)cc4Cl)C3)c2c1 [Cmpd 13b, (S)-3-(1-(2,4-dichlorobenzyl)pyrrolidin-3-yl)-2-oxo-2,3-dihydro-1H-benzo[d]imidazole-5-carboxylic acid]	–
+ +	O=C(O)c1ccc2[nH]c(=O)n(CC3CCN(C(=O)c4ccc(Cl)cc4Cl)C3)c2c1 (stereo not drawn) [Cmpd 19b, 3-((1-(2,4-dichlorobenzoyl)pyrrolidin-3-yl)methyl)-2-oxo-2,3-dihydro-1H-benzo[d]imidazole-5-carboxylic acid]	–
+ +	O=C(O)c1ccc2c(c1)C1(CCN(C(=O)COc3ccc(Cl)cc3)CC1)C(=O)N2 [Cmpd 9a, 1′-(2-(4-chlorophenoxy)acetyl)-2-oxospiro[indoline-3,4′-piperidine]-5-carboxylic acid]	–
+ +	O=C(O)c1ccc2[nH]c(=O)n(CCOc3ccc(Cl)cc3)c2c1 [Cmpd 8b, 3-(2-(4-chlorophenoxy)ethyl)-2-oxo-2,3-dihydro-1H-benzo[d]imidazole-5-carboxylic acid]	–
+ +	O=C(O)c1ccc2c(c1)C1(CCN(C(=O)c3ccccc3Cl)CC1)C(=O)N2 [Cmpd 14a, 1′-(2-chlorobenzoyl)-2-oxospiro[indoline-3,4′-piperidine]-5-carboxylic acid]	–
+ +	O=C(O)c1ccc2c(c1)[nH]c(=O)n2C1CCN(C(=O)c2ccc(Cl)cc2Cl)CC1 [Cmpd 16b, 1-(1-(2,4-dichlorobenzoyl)piperidin-4-yl)-2-oxo-2,3-dihydro-1H-benzo[d]imidazole-5-carboxylic acid]	–
+ +	O=C(O)c1ccc2[nH]c(=O)n([C@H]3CCN(C(=O)c4ccc(Cl)cc4Cl)C3)c2c1 [Cmpd 12b, (S)-3-(1-(2,4-dichlorobenzoyl)pyrrolidin-3-yl)-2-oxo-2,3-dihydro-1H-benzo[d]imidazole-5-carboxylic acid]	–
+ +	O=C(O)c1ccc2[nH]c(=O)n([C@@H]3CCN(C(=O)c4ccc(Cl)cc4Cl)C3)c2c1 [Cmpd 14b, (R)-3-(1-(2,4-dichlorobenzoyl)pyrrolidin-3-yl)-2-oxo-2,3-dihydro-1H-benzo[d]imidazole-5-carboxylic acid]	–
+ + +	O=C(O)c1ccc2[nH]c(=O)n(CCCOc3ncc(Cl)cc3Cl)c2c1 [Cmpd 9b, 3-(3-((3,5-dichloropyridin-2-yl)oxy)propyl)-2-oxo-2,3-dihydro-1H-benzo[d]imidazole-5-carboxylic acid]	–
+ +	O=C(O)c1ccc2[nH]c(=O)n(C3CN(C(=O)c4ccc(Cl)cc4Cl)C3)c2c1 [Cmpd 10b, 3-(1-(2,4-dichlorobenzoyl)azetidin-3-yl)-2-oxo-2,3-dihydro-1H-benzo[d]imidazole-5-carboxylic acid]	–

The remaining lines, values behind:

SMILES	IP6K1 IC50 [2]	also measured
O=[N+]([O-])c1ccc(CNc2nc(NCc3cccc(C(F)(F)F)c3)nc3nc[nH]c23)cc1 [TNP, N2-(m-trifluorobenzyl)-N6-(p-nitrobenzyl)purine]	–	glucose tolerance and insulin sensitivity [1]: improved; serum insulin levels [1]: lower
CC(C)C(=O)N1CCC2(CC1)C(=O)Nc1ccc(C(=O)O)cc12 [Cmpd 13a, 1′-isobutyryl-2-oxospiro[indoline-3,4′-piperidine]-5-carboxylic acid]	–	pIC50 [2]: 4.52 to 5.52
CC(=O)N1CCC2(CC1)C(=O)Nc1ccc(C(=O)O)cc12 [Cmpd 12a, 1′-acetyl-2-oxospiro[indoline-3,4′-piperidine]-5-carboxylic acid]	–	pIC50 [2]: 4.52 to 5.52
O=C(O)c1ccc2[nH]c(=O)n(CC3CCN(Cc4ccc(Cl)cc4Cl)C3)c2c1 (stereo not drawn) [Cmpd 18b, 3-((1-(2,4-dichlorobenzyl)pyrrolidin-3-yl)methyl)-2-oxo-2,3-dihydro-1H-benzo[d]imidazole-5-carboxylic acid]	–	pIC50 [2]: 4.52 to 5.52
O=C(O)c1ccc2c(c1)C1(CCN(C(=O)c3ccc(C(F)(F)F)cc3)CC1)C(=O)N2 [Cmpd 8a, 2-oxo-1′-(4-(trifluoromethyl)benzoyl)spiro[indoline-3,4′-piperidine]-5-carboxylic acid]	+ + +	–
O=C(O)c1ccc2c(c1)C1(CCN(S(=O)(=O)c3ccc(Cl)cc3)CC1)C(=O)N2 [Cmpd 1a, 1′-((4-chlorophenyl)sulfonyl)-2-oxospiro[indoline-3,4′-piperidine]-5-carboxylic acid]	+ +	–
O=C(O)c1ccc2[nH]c(=O)n([C@H]3CC[C@H](Oc4ncc(Cl)cc4Cl)CC3)c2c1 [Cmpd 5b, 3-((1r,4r)-4-((3,5-dichloropyridin-2-yl)oxy)cyclohexyl)-2-oxo-2,3-dihydro-1H-benzo[d]imidazole-5-carboxylic acid]	+ + +	–
O=C(O)c1ccc2c(c1)C1(CCN(C(=O)Nc3ccc(Cl)cc3)CC1)C(=O)N2 [Cmpd 7a, 1′-((4-chlorophenyl)carbamoyl)-2-oxospiro[indoline-3,4′-piperidine]-5-carboxylic acid]	+ + +	–
O=C(O)c1ccc2c(c1)C1(CCN(C(=O)c3ncc(Cl)cc3Cl)CC1)C(=O)N2 [Cmpd 6a, 1′-(3,5-dichloropicolinoyl)-2-oxospiro[indoline-3,4′-piperidine]-5-carboxylic acid]	+ + +	–
O=C(O)c1ccc2[nH]c(=O)n(C3CCN(C(=O)c4ccc(Cl)cc4Cl)CC3)c2c1 [Cmpd 3b, 3-(1-(2,4-dichlorobenzoyl)piperidin-4-yl)-2-oxo-2,3-dihydro-1H-benzo[d]imidazole-5-carboxylic acid]	+ + +	–
O=C(O)c1ccc2[nH]c(=O)n(C3CCN(C(=O)c4ccccc4Cl)CC3)c2c1 [Cmpd 1b, 3-(1-(2-chlorobenzoyl)piperidin-4-yl)-2-oxo-2,3-dihydro-1H-benzo[d]imidazole-5-carboxylic acid]	+ +	–
O=C(O)c1ccc2c(c1)C1(CCN(C(=O)c3ccc(Cl)cc3)CC1)C(=O)N2 [Cmpd 2a, 1′-(4-chlorobenzoyl)-2-oxospiro[indoline-3,4′-piperidine]-5-carboxylic acid]	+ + +	–
COC(=O)c1ccc2c(c1)C1(CCN(C(=O)c3ccc(Cl)cc3)CC1)C(=O)N2 [Cmpd 3a, Methyl 1′-(4-chlorobenzoyl)-2-oxospiro[indoline-3,4′-piperidine]-5-carboxylate]	–	pIC50 [2]: 4.52 to 5.52
O=C(O)c1ccc2c(c1)C1(CCN(C(=O)Cc3ccc(Cl)cc3)CC1)C(=O)N2 [Cmpd 4a, 1′-(2-(4-chlorophenyl)acetyl)-2-oxospiro[indoline-3,4′-piperidine]-5-carboxylic acid]	+ +	–
O=C(O)c1ccc2c(c1)C1(CCN(C(=O)C3CC3)CC1)C(=O)N2 [Cmpd 10a, 1′-(cyclopropanecarbonyl)-2-oxospiro[indoline-3,4′-piperidine]-5-carboxylic acid]	–	pIC50 [2]: 4.52 to 5.52
O=C(O)c1cc2c(cc1F)[nH]c(=O)n2[C@H]1CC[C@H](Oc2ncc(Cl)cc2Cl)CC1 [Cmpd 7b, 3-((1r,4r)-4-((3,5-dichloropyridin-2-yl)oxy)cyclohexyl)-6-fluoro-2-oxo-2,3-dihydro-1H-benzo[d]imidazole-5-carboxylic acid]	+ + +	–
O=C(O)c1ccc2c(c1)C1(CCN(Cc3ccc(Cl)cc3)CC1)C(=O)N2 [Cmpd 5a, 1′-(4-chlorobenzyl)-2-oxospiro[indoline-3,4′-piperidine]-5-carboxylic acid]	+ +	–
O=C(O)c1ccc2[nH]c(=O)n([C@H]3CC[C@@H](Oc4ncc(Cl)cc4Cl)CC3)c2c1 [Cmpd 6b, 3-((1s,4s)-4-((3,5-dichloropyridin-2-yl)oxy)cyclohexyl)-2-oxo-2,3-dihydro-1H-benzo[d]imidazole-5-carboxylic acid]	+ + +	–

From patent US20250197396A1, “COMPOUNDS FOR INHIBITING INOSITOL HEXAKISPHOSPHATE KINASE (IP6K) AND METHODS OF USE THEREOF” (Lieber Institute, Inc., priority 2020, published 2025)
